Patent publication US12338243B2, “P2X7 modulators” (JANSSEN PHARMACEUTICA NV, priority 2014, dated 2025)

What was measured:
P2X7 = target: T1, P2X7 (Homo sapiens, UniProt Q99572); experiment: Ca2+ flux (FLIPR) in 1321N1 cells expressing recombinant human P2X7 channel; type: cell-based; design: expressed in transfected cells; host or cells: 1321N1 cells; details: 250 μM BzATP
T1 sequence (Q99572 1-595): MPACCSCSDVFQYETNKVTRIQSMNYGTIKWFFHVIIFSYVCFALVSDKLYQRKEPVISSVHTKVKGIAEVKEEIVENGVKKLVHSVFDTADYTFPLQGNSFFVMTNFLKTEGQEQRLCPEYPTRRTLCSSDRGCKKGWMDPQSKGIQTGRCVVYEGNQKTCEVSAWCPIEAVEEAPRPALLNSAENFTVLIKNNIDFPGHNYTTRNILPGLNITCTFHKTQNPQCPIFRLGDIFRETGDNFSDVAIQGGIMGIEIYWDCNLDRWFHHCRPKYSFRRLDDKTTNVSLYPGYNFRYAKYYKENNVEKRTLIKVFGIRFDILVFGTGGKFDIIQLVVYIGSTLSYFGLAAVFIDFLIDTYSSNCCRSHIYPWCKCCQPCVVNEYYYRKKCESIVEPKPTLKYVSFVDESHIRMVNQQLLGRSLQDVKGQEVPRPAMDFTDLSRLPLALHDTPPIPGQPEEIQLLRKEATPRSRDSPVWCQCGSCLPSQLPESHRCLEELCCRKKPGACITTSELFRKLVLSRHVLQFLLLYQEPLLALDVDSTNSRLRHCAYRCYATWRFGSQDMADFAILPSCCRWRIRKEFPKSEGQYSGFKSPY
Description: P2X7 Antagonism in Recombinant Human P2X7 Cells or Recombinant Rat P2X7 Cells: (a) Ca^2+ Flux and (b) Radioligand Binding
(a) Ca^2+ flux: 1321N1 cells expressing the recombinant human or rat P2X7 channel was cultured in HyQ DME/(HyClone/Dulbecco's Modified Eagle Medium) high glucose supplemented with 10% Fetal Bovine Serum (FBS) and appropriate selection marker. Cells were seeded at a density of 25000 cells/well (96-well clear bottom black walled plates) in 100 μl volume/well. On the day of the experiment, cell plates were washed with assay buffer, containing (in mM): 130 NaCl, 2 KCl, 1 CaCl2), 1 MgCl2, 10 HEPES, 5 glucose; pH 7.40 and 300 mOs. After the wash, cells were loaded with the Calcium-4 dye (Molecular Device) and incubated in the dark for 60 minutes. Test compounds were prepared at 250× the test concentration in neat DMSO. Intermediate 96-well compound plates were prepared by transferring 1.2 μL of the compound into 300 μL of assay buffer. A further 3× dilution occurred when transferring 50 μL/well of the compound plate to 100 μL/well in the cell plate. Cells were incubated with test compounds and dye for 30 minutes. […] The fluorescence change was measured 180 seconds after adding the agonist.

rat P2X7 = target: T2, rat P2X7 (Rattus norvegicus, UniProt Q64663); experiment: Ca2+ flux (FLIPR) in 1321N1 cells expressing recombinant rat P2X7 channel; details: FLIPR (rat) IC50 (μM), 250 μM BzATP
T2 sequence (Q64663 1-595): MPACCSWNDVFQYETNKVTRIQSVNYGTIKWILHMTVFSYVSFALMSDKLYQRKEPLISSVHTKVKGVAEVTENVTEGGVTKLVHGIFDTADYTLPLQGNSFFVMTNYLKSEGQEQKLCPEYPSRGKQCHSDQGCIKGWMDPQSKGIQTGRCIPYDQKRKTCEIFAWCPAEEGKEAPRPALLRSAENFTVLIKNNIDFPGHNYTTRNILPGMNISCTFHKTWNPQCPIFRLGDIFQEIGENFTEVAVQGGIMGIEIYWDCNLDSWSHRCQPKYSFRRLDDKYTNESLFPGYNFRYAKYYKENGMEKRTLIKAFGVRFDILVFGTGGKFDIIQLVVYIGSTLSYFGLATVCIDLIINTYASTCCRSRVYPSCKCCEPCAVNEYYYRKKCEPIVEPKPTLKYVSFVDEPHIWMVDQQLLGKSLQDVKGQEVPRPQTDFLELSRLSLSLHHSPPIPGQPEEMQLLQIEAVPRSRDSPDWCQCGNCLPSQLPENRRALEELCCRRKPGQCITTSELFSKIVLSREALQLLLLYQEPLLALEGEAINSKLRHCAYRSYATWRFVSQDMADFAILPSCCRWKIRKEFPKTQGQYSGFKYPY

| Compound | IC50 (P2X7) [µM] | IC50 (rat P2X7) [µM] |
| --- | --- | --- |
| CC1Cn2c(nnc2C(F)(F)F)C(c2ccccc2)N1C(=O)c1cccc(C(F)(F)F)c1Cl (racemic) [Example 130, (±)-(2-chloro-3-(trifluoromethyl)phenyl)(6-methyl-8-phenyl-3-(trifluoromethyl)-5,6-dihydro-[1,2,4]triazolo[4,3-a]pyrazin-7(8H)-yl)methanone] | > 10 | > 10 |
| C[C@H]1Cn2c(nnc2-c2ccc(C(F)(F)F)cc2)CN1C(=O)c1cccc(Cl)c1Cl [Example 26, (S)-(2,3-dichlorophenyl)(6-methyl-3-(4-(trifluoromethyl)phenyl)-5,6-dihydro-[1,2,4]triazolo[4,3-a]pyrazin-7(8H)-yl)methanone] | 4.13 | 3.95 |
| C[C@H]1Cn2c(nnc2-c2ccc(C(F)(F)F)cc2)CN1C(=O)c1cccc(C(F)(F)F)c1Cl [Example 27, (S)-(2-chloro-3-(trifluoromethyl)phenyl)(6-methyl-3-(4-(trifluoromethyl)phenyl)-5,6-dihydro-[1,2,4]triazolo[4,3-a]pyrazin-7(8H)-yl)methanone] | 1.66 | 2.96 |
| C[C@H]1Cn2c(nnc2-c2ccc(C(F)(F)F)c(F)c2)CN1C(=O)c1cccc(Cl)c1Cl [Example 28, (S)-(2,3-dichlorophenyl)(3-(3-fluoro-4-(trifluoromethyl)phenyl)-6-methyl-5,6-dihydro-[1,2,4]triazolo[4,3-a]pyrazin-7(8H)-yl)methanone] | 7.48 | 3.78 |
| C[C@H]1Cn2c(nnc2-c2ccc(C(F)(F)F)c(F)c2)CN1C(=O)c1cccc(C(F)(F)F)c1Cl [Example 29, (S)-(2-chloro-3-(trifluoromethyl)phenyl)(3-(3-fluoro-4-(trifluoromethyl)phenyl)-6-methyl-5,6-dihydro-[1,2,4]triazolo[4,3-a]pyrazin-7(8H)-yl)methanone] | 3.55 | 2.97 |
| CC1CN(C(=O)c2cccc(Cl)c2Cl)Cc2nnc(-c3ccccn3)n21 (stereo not shown) [Example 34, (2,3-dichlorophenyl)(5-methyl-3-(pyridin-2-yl)-5,6-dihydro-[1,2,4]triazolo[4,3-a]pyrazin-7(8H)-yl)methanone] | 12.9 | > 10 |
| CC1c2nnc(-c3ccc(C(F)(F)F)cc3)n2CCN1C(=O)c1cccc(C(F)(F)F)c1Cl (stereo not shown) [Example 35, (2-chloro-3-(trifluoromethyl)phenyl)(8-methyl-3-(4-(trifluoromethyl)phenyl)-5,6-dihydro-[1,2,4]triazolo[4,3-a]pyrazin-7(8H)-yl)methanone] | > 10 | > 10 |

Now from value to compound:

| IC50 (P2X7) [µM] | IC50 (rat P2X7) [µM] | Compound |
| --- | --- | --- |
| 2.43 | 9.44 | C[C@H]1Cn2c(nnc2-c2ccccc2F)CN1C(=O)c1cccc(C(F)(F)F)c1Cl [Example 39, (S)-(2-chloro-3-(trifluoromethyl)phenyl)(3-(2-fluorophenyl)-6-methyl-5,6-dihydro-[1,2,4]triazolo[4,3-a]pyrazin-7(8H)-yl)methanone] |
| 9.04 | 14.8 | C[C@H]1Cn2c(nnc2-c2ccccc2F)CN1C(=O)c1ccc(F)c(Cl)c1Cl [Example 40, (S)-(2,3-dichloro-4-fluorophenyl)(3-(2-fluorophenyl)-6-methyl-5,6-dihydro-[1,2,4]triazolo[4,3-a]pyrazin-7(8H)-yl)methanone] |
| > 10 | 10.7 | C[C@H]1Cn2c(nnc2-c2cccc(F)c2)CN1C(=O)c1cccc(Cl)c1Cl [Example 41, (S)-(2,3-dichlorophenyl)(3-(3-fluorophenyl)-6-methyl-5,6-dihydro-[1,2,4]triazolo[4,3-a]pyrazin-7(8H)-yl)methanone] |
| 3.92 | 1.46 | C[C@H]1Cn2c(nnc2-c2cccc(F)c2F)CN1C(=O)c1cccc(Cl)c1Cl [Example 44, (S)-(2,3-dichlorophenyl)(3-(2,3-difluorophenyl)-6-methyl-5,6-dihydro-[1,2,4]triazolo[4,3-a]pyrazin-7(8H)-yl)methanone] |
